Measurements as given in patent publication US12509457B2, “Bicyclic nitrogen containing heterocycles as inhibitors of salt-induced kinase SIK2” (priority 2019, dated 2025).
Read-outs that look alike come from different tables or passages of the source.

Assays:
Assay type in all cases: biochemical
SIK3 = SIK3 (Homo sapiens, UniProt Q9Y2K2); assay: SIK3 kinase assay, IMAP fluorescence polarization; settings: 50 or 100 μM ATP; average; read-out: SIK3-AVERAGE Ki
Abl = Abl (Homo sapiens, UniProt P00519); assay: Abl kinase assay, IMAP fluorescence polarization; settings: 50 or 100 μM ATP; average; read-out: Abl-AVERAGE Ki
SIK2 = SIK2 (Homo sapiens, UniProt Q9H0K1); assay: SIK2 kinase assay, IMAP fluorescence polarization; settings: 50 or 100 μM ATP; average; read-out: SIK2-AVERAGE Ki
EPHA2 = EPHA2 (Homo sapiens, UniProt P29317); assay: EPHA2 kinase assay, IMAP fluorescence polarization
SIK1 = SIK1 (Homo sapiens, UniProt P57059); assay: SIK1 kinase assay, IMAP fluorescence polarization; settings: 50 or 100 μM ATP; average; read-out: SIK1-AVERAGE Ki
Src = Src (Homo sapiens, UniProt P12931); assay: Src kinase assay, IMAP fluorescence polarization; settings: 50 or 100 μM ATP; average; read-out: Src-AVERAGE Ki

Sequence of Abl (P00519 whole entry): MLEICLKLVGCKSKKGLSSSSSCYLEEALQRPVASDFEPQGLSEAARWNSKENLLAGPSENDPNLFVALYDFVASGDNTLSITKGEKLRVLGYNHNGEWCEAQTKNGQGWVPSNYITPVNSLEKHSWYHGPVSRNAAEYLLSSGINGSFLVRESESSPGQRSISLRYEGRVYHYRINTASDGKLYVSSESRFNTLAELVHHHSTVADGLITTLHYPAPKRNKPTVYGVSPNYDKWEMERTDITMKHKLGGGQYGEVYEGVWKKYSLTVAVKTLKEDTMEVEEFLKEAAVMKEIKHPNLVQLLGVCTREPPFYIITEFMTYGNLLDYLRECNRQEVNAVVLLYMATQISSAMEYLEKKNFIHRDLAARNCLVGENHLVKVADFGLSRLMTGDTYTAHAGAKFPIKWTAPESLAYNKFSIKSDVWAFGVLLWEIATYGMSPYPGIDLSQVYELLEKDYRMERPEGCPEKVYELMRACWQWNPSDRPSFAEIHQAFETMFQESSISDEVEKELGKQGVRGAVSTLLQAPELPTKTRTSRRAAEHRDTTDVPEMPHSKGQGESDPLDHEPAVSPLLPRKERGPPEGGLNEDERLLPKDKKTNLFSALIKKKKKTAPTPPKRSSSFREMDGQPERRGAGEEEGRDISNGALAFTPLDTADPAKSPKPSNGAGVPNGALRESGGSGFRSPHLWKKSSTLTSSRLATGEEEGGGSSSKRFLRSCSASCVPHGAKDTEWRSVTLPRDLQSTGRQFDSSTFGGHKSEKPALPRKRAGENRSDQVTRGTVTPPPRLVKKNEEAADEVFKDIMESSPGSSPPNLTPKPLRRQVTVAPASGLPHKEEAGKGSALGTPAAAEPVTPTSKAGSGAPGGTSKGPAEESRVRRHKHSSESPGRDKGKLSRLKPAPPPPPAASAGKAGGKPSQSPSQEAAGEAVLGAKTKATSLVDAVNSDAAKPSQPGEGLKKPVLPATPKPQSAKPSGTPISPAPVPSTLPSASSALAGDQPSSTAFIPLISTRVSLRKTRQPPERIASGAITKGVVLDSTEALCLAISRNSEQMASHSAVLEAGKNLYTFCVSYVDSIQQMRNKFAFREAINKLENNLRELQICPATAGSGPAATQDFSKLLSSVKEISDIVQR
Sequence of SIK1 (P57059 whole entry): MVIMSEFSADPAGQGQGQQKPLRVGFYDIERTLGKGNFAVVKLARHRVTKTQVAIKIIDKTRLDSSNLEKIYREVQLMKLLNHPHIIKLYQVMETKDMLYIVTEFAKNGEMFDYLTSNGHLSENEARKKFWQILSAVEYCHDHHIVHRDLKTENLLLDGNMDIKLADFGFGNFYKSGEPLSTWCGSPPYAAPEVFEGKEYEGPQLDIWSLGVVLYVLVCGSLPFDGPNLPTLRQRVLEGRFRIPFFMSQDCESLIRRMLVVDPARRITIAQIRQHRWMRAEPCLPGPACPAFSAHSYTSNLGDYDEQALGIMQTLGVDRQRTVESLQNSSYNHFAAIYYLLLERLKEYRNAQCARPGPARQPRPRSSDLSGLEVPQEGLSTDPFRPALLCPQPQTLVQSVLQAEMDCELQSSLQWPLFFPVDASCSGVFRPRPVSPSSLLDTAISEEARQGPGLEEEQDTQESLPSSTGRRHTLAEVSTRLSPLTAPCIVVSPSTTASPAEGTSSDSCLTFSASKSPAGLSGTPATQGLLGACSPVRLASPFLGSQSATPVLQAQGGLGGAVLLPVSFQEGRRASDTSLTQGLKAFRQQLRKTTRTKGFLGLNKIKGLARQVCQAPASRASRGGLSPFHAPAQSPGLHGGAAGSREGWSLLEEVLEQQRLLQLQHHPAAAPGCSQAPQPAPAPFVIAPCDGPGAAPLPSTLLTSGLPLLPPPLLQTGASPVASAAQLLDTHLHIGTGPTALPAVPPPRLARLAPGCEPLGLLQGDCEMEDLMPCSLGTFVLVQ
Sequence of SIK3 (Q9Y2K2 whole entry): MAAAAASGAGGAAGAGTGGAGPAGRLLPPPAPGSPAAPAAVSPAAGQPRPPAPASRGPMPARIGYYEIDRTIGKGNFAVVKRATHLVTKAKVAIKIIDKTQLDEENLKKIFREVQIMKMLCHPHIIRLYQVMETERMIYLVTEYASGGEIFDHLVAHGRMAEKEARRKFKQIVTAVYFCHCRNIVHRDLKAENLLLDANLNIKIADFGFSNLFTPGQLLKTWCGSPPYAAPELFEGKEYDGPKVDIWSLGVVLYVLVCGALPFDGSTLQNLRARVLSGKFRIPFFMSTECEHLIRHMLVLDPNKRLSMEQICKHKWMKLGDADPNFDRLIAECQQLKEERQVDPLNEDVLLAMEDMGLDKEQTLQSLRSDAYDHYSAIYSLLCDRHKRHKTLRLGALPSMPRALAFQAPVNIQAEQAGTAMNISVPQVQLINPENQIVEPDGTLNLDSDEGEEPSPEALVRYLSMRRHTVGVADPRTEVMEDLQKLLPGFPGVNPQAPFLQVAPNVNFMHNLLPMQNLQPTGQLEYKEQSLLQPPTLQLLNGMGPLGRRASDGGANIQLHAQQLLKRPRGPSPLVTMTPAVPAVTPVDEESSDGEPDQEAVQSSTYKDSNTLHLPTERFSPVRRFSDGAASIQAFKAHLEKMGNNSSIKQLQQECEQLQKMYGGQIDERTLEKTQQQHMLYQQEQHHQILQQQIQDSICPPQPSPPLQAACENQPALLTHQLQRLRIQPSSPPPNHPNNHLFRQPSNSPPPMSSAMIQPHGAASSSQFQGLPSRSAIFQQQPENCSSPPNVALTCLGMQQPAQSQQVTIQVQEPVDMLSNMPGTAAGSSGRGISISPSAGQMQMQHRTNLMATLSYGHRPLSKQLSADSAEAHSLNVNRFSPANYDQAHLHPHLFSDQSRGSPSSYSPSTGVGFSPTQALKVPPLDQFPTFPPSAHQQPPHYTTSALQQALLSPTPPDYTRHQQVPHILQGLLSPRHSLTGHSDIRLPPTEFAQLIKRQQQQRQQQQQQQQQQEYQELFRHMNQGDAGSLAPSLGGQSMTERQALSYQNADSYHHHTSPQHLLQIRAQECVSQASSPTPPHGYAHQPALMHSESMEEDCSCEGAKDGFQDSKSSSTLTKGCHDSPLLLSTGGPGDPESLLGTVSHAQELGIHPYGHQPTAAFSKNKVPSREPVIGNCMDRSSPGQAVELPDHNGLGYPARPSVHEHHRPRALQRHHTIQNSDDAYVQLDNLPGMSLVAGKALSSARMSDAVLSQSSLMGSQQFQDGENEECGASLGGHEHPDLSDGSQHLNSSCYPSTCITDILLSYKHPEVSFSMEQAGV
Sequence of EPHA2 (P29317 24-976): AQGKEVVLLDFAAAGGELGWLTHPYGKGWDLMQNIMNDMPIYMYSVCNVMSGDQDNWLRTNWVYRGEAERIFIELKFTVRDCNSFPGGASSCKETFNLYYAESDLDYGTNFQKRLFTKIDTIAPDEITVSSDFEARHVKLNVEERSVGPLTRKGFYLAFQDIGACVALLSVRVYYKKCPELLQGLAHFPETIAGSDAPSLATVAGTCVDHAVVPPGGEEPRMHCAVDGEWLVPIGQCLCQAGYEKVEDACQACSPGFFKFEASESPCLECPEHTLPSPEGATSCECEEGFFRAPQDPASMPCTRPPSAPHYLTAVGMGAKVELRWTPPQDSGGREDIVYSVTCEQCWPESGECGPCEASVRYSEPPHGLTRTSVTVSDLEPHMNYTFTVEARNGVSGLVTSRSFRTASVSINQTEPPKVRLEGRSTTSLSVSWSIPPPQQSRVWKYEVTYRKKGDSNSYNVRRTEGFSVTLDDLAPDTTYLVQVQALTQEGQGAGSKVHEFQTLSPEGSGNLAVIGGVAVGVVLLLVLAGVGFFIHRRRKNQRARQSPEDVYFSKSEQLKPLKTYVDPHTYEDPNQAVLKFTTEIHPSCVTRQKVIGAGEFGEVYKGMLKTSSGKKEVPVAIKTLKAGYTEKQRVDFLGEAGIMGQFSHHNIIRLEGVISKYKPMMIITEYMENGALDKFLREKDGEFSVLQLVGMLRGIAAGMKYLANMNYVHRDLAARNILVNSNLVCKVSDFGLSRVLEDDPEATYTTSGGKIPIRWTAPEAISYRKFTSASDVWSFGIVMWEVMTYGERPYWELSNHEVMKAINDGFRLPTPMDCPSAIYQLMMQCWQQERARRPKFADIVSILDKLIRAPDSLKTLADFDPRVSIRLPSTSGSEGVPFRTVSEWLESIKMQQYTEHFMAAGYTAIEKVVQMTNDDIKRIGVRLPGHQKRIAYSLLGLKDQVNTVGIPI
Sequence of SIK2 (Q9H0K1 whole entry): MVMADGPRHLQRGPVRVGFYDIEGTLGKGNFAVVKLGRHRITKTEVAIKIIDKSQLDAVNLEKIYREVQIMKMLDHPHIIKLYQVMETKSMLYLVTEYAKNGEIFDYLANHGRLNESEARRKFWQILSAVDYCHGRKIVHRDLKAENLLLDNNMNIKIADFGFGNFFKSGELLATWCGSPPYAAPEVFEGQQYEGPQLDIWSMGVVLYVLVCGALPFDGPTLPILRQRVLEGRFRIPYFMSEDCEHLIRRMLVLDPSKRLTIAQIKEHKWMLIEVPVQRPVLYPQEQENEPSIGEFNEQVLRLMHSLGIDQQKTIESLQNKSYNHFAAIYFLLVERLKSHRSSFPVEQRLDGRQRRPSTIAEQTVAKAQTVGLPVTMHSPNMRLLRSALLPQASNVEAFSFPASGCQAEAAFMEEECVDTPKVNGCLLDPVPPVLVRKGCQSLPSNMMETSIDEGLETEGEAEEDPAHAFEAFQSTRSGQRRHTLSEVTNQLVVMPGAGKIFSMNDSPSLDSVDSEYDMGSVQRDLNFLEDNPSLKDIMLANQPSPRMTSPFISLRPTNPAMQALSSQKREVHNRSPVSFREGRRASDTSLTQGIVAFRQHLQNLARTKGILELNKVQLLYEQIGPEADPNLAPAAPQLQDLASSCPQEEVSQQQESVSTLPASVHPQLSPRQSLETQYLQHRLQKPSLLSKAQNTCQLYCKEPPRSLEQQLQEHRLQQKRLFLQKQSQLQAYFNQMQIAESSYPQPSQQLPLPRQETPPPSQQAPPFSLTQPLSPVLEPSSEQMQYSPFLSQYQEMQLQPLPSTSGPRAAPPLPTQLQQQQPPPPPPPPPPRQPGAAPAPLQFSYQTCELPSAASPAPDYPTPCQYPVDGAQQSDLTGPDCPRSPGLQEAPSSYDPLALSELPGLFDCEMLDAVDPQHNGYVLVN

SMILES | Ki (SIK3) | Ki (Abl) | Ki (SIK2) | Ki (EPHA2; 50 or 100 μM ATP, average) | Ki (SIK1) | Ki (Src) | Ki (EPHA2)
Cc1cccc(F)c1N1Cc2cnc(N)nc2N([C@@H]2CCCNCC2)C1=O [Example 68, 7-amino-1-[(4R)-azepan-4-yl]-3-(2-fluoro-6-methyl-phenyl)-4H-pyrimido[4,5-d]pyrimidin-2-one] | 0.845 nM | 15.3 nM | 0.197 nM | 22.3 nM | 0.397 nM | 47.7 nM | 
Cc1cccc(F)c1N1Cc2cnc(N)cc2N([C@H]2CCC[C@@H](N(C)C)C2)C1=O (relative stereo) [Example 43, 7-amino-1-[cis-3-(dimethylamino)cyclohexyl]-3-(2-fluoro-6-methyl-phenyl)-4H-pyrido[4,3-d]pyrimidin-2-one] | 13.4 nM | 25.3 nM | 1.57 nM | 39.3 nM | 1.96 nM | 71.3 nM | 
Cc1cccc(F)c1N1Cc2cnc(N)cc2N([C@@H]2CCCCNC2)C1=O [Example 50, 7-amino-3-(2-fluoro-6-methyl-phenyl)-1-[(3R)-azepan-3-yl]-4H-pyrido[4,3-d]pyrimidin-2-one] | 1.36 nM | 6.12 nM | 0.152 nM | 13.6 nM | 0.193 nM | 24.2 nM | 
Cc1cccc(F)c1N1Cc2cnc(N)nc2N(CC2CCNCC2)C1=O [Example 12, 7-amino-3-(2-fluoro-6-methyl-phenyl)-1-(4-piperidylmethyl)-4H-pyrimido[4,5-d]pyrimidin-2-one] | 0.721 nM | 3.12 nM | 0.149 nM | 27.9 nM | 0.822 nM | 39.3 nM | 
Cc1cccc(F)c1N1Cc2cnc(N(C)C)cc2N([C@H]2CC[C@@H](N(C)C)CC2)C1=O [Example 41, cis-7-(dimethylamino)-1-[4-(dimethylamino)cyclohexyl]-3-(2-fluoro-6-methyl-phenyl)-4H-pyrido[4,3-d]pyrimidin-2-one] | 565 nM | > 10000 nM | 102 nM | > 10000 nM | 478 nM | > 10000 nM | 
Cc1cccc(F)c1N1Cc2cnc(N)nc2N([C@@H]2CCCN(C)C2)C1=O [Example 42, 7-Amino-3-(2-fluoro-6-methyl-phenyl)-1-[(3R)-1-methyl-3-piperidyl]-4H-pyrimido[4,5-d]pyrimidin-2-one] | 14 nM | 241 nM | 1.52 nM | 66.8 nM | 3.24 nM | 702 nM | 
Cc1cccc(F)c1N1Cc2cnc(N)nc2N([C@H]2CC[C@@H](N(C)C)CC2)C1=O [Example 39, cis-7-amino-1-[4-(dimethylamino)cyclohexyl]-3-(2-fluoro-6-methyl-phenyl)-4H-pyrimido[4,5-d]pyrimidin-2-one] | 3.87 nM | 32.5 nM | 0.444 nM | 35.8 nM | 1.66 nM | 86 nM | 
Cc1cccc(F)c1N1Cc2cnc(N)nc2N([C@H]2CCN(C)C2)C1=O [Example 30, 7-amino-3-(2-fluoro-6-methyl-phenyl)-1-[(3S)-1-methylpyrrolidin-3-yl]-4H-pyrimido[4,5-d]pyrimidin-2-one] | 64.5 nM | 444 nM | 3.8 nM |  | 12 nM | 1880 nM | 78.5 nM
Cc1cccc(F)c1N1Cc2cnc(N)nc2N([C@H]2CCNC2)C1=O [Example 65, 7-Amino-3-(2-fluoro-6-methyl-phenyl)-1-[(3S)-pyrrolidin-3-yl]-4H-pyrimido[4,5-d]pyrimidin-2-one] | 20.8 nM | > 1000 nM | 1.11 nM | 149 nM | 2.8 nM | > 1000 nM | 
Cc1cccc(F)c1N1Cc2cnc(N)cc2N([C@H]2CCCN(C)CC2)C1=O [Example 86, 7-amino-3-(2-fluoro-6-methyl-phenyl)-1-[(4S)-1-methylazepan-4-yl]-4H-pyrido[4,3-d]pyrimidin-2-one] | 6.15 nM | 94.7 nM | 0.592 nM | 502 nM | 1.86 nM | 644 nM | 
Cc1cccc(F)c1N1Cc2cnc(N)nc2N([C@@H]2CCNC2)C1=O [Example 67, 7-amino-3-(2-fluoro-6-methyl-phenyl)-1-[(3R)-pyrrolidin-3-yl]-4H-pyrimido[4,5-d]pyrimidin-2-one] | 41.3 nM | 261 nM | 3.15 nM | 127 nM | 5.83 nM | > 10000 nM | 
Cc1cccc(F)c1N1Cc2cnc(N)cc2N([C@H]2CCCCNC2)C1=O [Example 53, 7-amino-1-[(3S)-azepan-3-yl]-3-(2-fluoro-6-methyl-phenyl)-4H-pyrido[4,3-d]pyrimidin-2-one] | 68 nM | 517 nM | 2.24 nM | 815 nM | 9.45 nM | 2870 nM | 

Continued, values first:

Ki (SIK3) | Ki (Abl) | Ki (SIK2) | Ki (EPHA2; 50 or 100 μM ATP, average) | Ki (SIK1) | Ki (Src) | Ki (EPHA2) | SMILES
16.6 nM | > 1000 nM | 1.32 nM | 247 nM | 2.6 nM | > 1000 nM |  | Cc1cccc(F)c1N1Cc2cnc(N)cc2N([C@@H]2CCNC2)C1=O [Example 47, 7-Amino-3-(2-fluoro-6-methyl-phenyl)-1-[(3R)-pyrrolidin-3-yl]-4H-pyrido[4,3-d]pyrimidin-2-one]
0.944 nM | 42.4 nM | 0.147 nM | 28.1 nM | 0.743 nM | 31.2 nM |  | Cc1cccc(F)c1N1Cc2cnc(N)cc2N([C@H]2CC[C@@H](N)CC2)C1=O [Example 62, cis-7-Amino-1-(4-aminocyclohexyl)-3-(2-fluoro-6-methyl-phenyl)-4H-pyrido[4,3-d]pyrimidin-2-one]
1.98 nM | 22.6 nM | 0.356 nM | 16.3 nM | 1.08 nM | 49 nM |  | Cc1cccc(F)c1N1Cc2cnc(N)nc2N([C@H]2CC[C@@H](N)CC2)C1=O [Example 74, 7-amino-1-(4-aminocyclohexyl)-3-(2-fluoro-6-methyl-phenyl)-4H-pyrimido[4,5-d]pyrimidin-2-one]
0.82 nM | 10.5 nM | 0.181 nM | 31 nM | 0.409 nM | 91.3 nM |  | Cc1cccc(F)c1N1Cc2cnc(N)cc2N([C@@H]2CCCNCC2)C1=O [Example 51, 7-amino-3-(2-fluoro-6-methyl-phenyl)-1-[(4R)-azepan-4-yl]-4H-pyrido[4,3-d]pyrimidin-2-one]
0.279 nM | 28.8 nM | 0.121 nM | 46.5 nM | 0.45 nM | 18.9 nM |  | Cc1cccc(F)c1N1Cc2cnc(N)cc2N([C@H]2CC[C@H](N)CC2)C1=O [Example 58, trans-7-Amino-1-(4-aminocyclohexyl)-3-(2-fluoro-6-methyl-phenyl)-4H-pyrido[4,3-d]pyrimidin-2-one]
5.89 nM | > 1000 nM | 0.498 nM | 54.5 nM | 1 nM | 82.7 nM |  | Cc1cccc(F)c1N1Cc2cnc(N)cc2N([C@H]2CCCN(C)C2)C1=O [Example 82, 7-amino-3-(2-fluoro-6-methyl-phenyl)-1-[(3S)-1-methyl-3-piperidyl]-4H-pyrido[4,3-d]pyrimidin-2-one]
5.04 nM | 67.4 nM | 0.522 nM | 45.2 nM | 0.84 nM | 252 nM |  | Cc1cccc(F)c1N1Cc2cnc(N)cc2N([C@@H]2CCCN(C)C2)C1=O [Example 81, 7-amino-3-(2-fluoro-6-methyl-phenyl)-1-[(3R)-1-methyl-3-piperidyl]-4H-pyrido[4,3-d]pyrimidin-2-one]
